Measurements published in PubChem BioAssay (NCI).
Several values for one entry are separate records, joined by “and”; a condition that tells them apart may be missing. Equal values may be shown once.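 Protocol summary: plate cells (96-well), add compound at 5 concentrations, incubate 48 h, interpolate endpoints linearly. Abbreviation: GI50, concentration required for 50% inhibition of growth. TGI marks complete inhibition of growth.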

How the values were obtained:
Assay in all cases: NCI-60 cell line screen, 48 h
HS 578T breast = test system: HS 578T breast
SK-MEL-2 melanoma = test system: SK-MEL-2 melanoma
HOP-92 NSCLC = test system: HOP-92 NSCLC
UACC-62 melanoma = test system: UACC-62 melanoma
RXF 393 renal = test system: RXF 393 renal
SR leukemia = test system: SR leukemia
IGROV1 ovarian = test system: IGROV1 ovarian
HOP-62 NSCLC = test system: HOP-62 NSCLC
KM12 colon = test system: KM12 colon
K-562 leukemia = test system: K-562 leukemia

## O=S(=O)(NCCO)c1cc[c]([Sb](=[O])([OH])[OH])cc1
HS 578T breast
  GI50: > 100 µM
  TGI: > 100 µM
SK-MEL-2 melanoma
  GI50: > 100 µM
  TGI: > 100 µM
HOP-92 NSCLC
  GI50: > 100 µM
  TGI: > 100 µM
UACC-62 melanoma
  GI50: > 100 µM
  TGI: > 100 µM
RXF 393 renal
  GI50: > 100 µM
  TGI: > 100 µM
SR leukemia
  GI50: > 100 µM
  TGI: > 100 µM
IGROV1 ovarian
  GI50: > 100 µM
  TGI: > 100 µM
HOP-62 NSCLC
  GI50: > 100 µM
  TGI: > 100 µM
KM12 colon
  GI50: > 100 µM
  TGI: > 100 µM
K-562 leukemia
  GI50: > 100 µM
  TGI: > 100 µM

## Cc1cc2c(=O)[nH]c(N)nc2nc1C
HS 578T breast
  TGI: > 100 µM
SK-MEL-2 melanoma
  TGI: > 100 µM
HOP-92 NSCLC
  TGI: > 100 µM
UACC-62 melanoma
  TGI: > 100 µM
RXF 393 renal
  TGI: > 100 µM
SR leukemia
  TGI: > 100 µM
IGROV1 ovarian
  TGI: > 100 µM
HOP-62 NSCLC
  TGI: > 100 µM
KM12 colon
  TGI: > 100 µM
K-562 leukemia
  TGI: > 100 µM

## COC(=O)[C@@H](OC)[C@@H]1Cc2cc3cc(OC4CC(OC5CC(O)C(O)C(C)O5)C(O)C(C)O4)c(C)c(O)c3c(O)c2C(=O)[C@H]1OC1CC(OC2CC(OC3CC(C)(O)C(O)C(C)O3)C(O)C(C)O2)C(O)C(C)O1 (some centres not stated)
HS 578T breast
  GI50: 0.0399 µM
  TGI: 0.223 µM
SK-MEL-2 melanoma
  GI50: 0.0355 µM
  TGI: 0.0777 µM
HOP-92 NSCLC
  GI50: 0.0365 µM
  TGI: 0.119 µM
UACC-62 melanoma
  GI50: 0.0194 µM
  TGI: 0.0469 µM
RXF 393 renal
  GI50: 0.0263 µM
  TGI: 0.0623 µM
SR leukemia
  GI50: 0.0103 µM
  TGI: > 16.5 µM
IGROV1 ovarian
  GI50: 0.0299 µM
  TGI: > 16.5 µM
HOP-62 NSCLC
  GI50: 0.0312 µM
  TGI: 1.8 µM
KM12 colon
  GI50: 0.0404 µM
  TGI: 3.72 µM
K-562 leukemia
  GI50: 0.0407 µM
  TGI: > 16.5 µM

## N#C/C(=C\c1cccc2cnccc12)N1N=NC2C=CC=CC21 (configuration not stated)
HS 578T breast
  GI50: 2.46 µM
  TGI: 9.16 µM
SK-MEL-2 melanoma
  GI50: 4.49 µM
  TGI: > 100 µM
HOP-92 NSCLC
  GI50: 0.532 µM
  TGI: 5.13 µM
RXF 393 renal
  GI50: 2.35 µM
  TGI: 6.97 µM
SR leukemia
  GI50: 2.53 µM
  TGI: > 100 µM
IGROV1 ovarian
  GI50: 2.7 µM
  TGI: > 100 µM
HOP-62 NSCLC
  GI50: 2.95 µM
  TGI: 46.1 µM
KM12 colon
  GI50: 2.96 µM
  TGI: 32 µM
K-562 leukemia
  GI50: 2.85 µM
  TGI: > 100 µM

## CC1(C)CC(=O)c2c(ccc(C(=O)C[C@@H](N)CO)c2N)O1
HS 578T breast
  GI50: 20.6 µM
  TGI: > 100 µM
SK-MEL-2 melanoma
  GI50: 1.04 µM
  TGI: 9.33 µM
HOP-92 NSCLC
  GI50: 6.28 µM
  TGI: > 69.3 µM
UACC-62 melanoma
  GI50: 0.333 µM
  TGI: 3.61 µM
RXF 393 renal
  GI50: 1.45 µM
  TGI: 7.44 µM
SR leukemia
  GI50: 0.15 µM
IGROV1 ovarian
  GI50: 0.958 µM
  TGI: > 100 µM
HOP-62 NSCLC
  GI50: 0.643 µM
  TGI: > 49.1 µM
KM12 colon
  GI50: 0.297 µM
  TGI: > 91.7 µM
K-562 leukemia
  GI50: 0.531 µM
  TGI: > 100 µM

## CCN(CC)CCCNc1[nH]ncc2c(C)c3nc4ccccc4c3cc12
HS 578T breast
  GI50: 0.449 µM
  TGI: 2.13 µM and 6.38 µM
SK-MEL-2 melanoma
  GI50: 1.59 µM
  TGI: 3.11 µM and 7.17 µM
HOP-92 NSCLC
  GI50: 0.613 µM
  TGI: 3.63 µM and 5.8 µM
UACC-62 melanoma
  TGI: 1.96 µM and 2.08 µM
RXF 393 renal
  GI50: 0.878 µM
  TGI: 2.25 µM and 5.78 µM
SR leukemia
  TGI: 1.12 µM
IGROV1 ovarian
  GI50: 1.08 µM
  TGI: 8.16 µM and 6.88 µM
HOP-62 NSCLC
  GI50: 1.08 µM
  TGI: 2.58 µM and 13.3 µM
KM12 colon
  GI50: 0.355 µM
  TGI: 1.47 µM and 6.75 µM
K-562 leukemia
  GI50: 0.347 µM and 0.372 µM
  TGI: 1.79 µM and 9.54 µM

## C[C@@](O)(/C=C/[C@H]1CC=CC(=O)O1)[C@@H](C[C@@H](O)\C=C/C=C\C=C\CO)OP(=O)(O)O
HS 578T breast
  TGI: 22.6 µM
SK-MEL-2 melanoma
  GI50: 19.8 µM
  TGI: 65.2 µM and 42.4 µM
HOP-92 NSCLC
  TGI: 10.6 µM
UACC-62 melanoma
  GI50: 6.51 µM
  TGI: 28 µM and 11 µM
RXF 393 renal
  TGI: 23.8 µM and 13 µM
SR leukemia
  TGI: 41.6 µM
IGROV1 ovarian
  TGI: 15.4 µM
HOP-62 NSCLC
  GI50: 10.1 µM
  TGI: 29.5 µM and 12.1 µM
KM12 colon
  TGI: 32.2 µM and 37.8 µM
K-562 leukemia
  GI50: 1.39 µM
  TGI: 363 µM and 84.6 µM

## COc1ccc(-c2nc(-c3nc4ccc(C(F)(F)F)cc4[nH]3)c3ccccn23)cc1
HS 578T breast
  GI50: > 100 µM
  TGI: > 100 µM
SK-MEL-2 melanoma
  GI50: > 100 µM
  TGI: > 100 µM
HOP-92 NSCLC
  GI50: > 100 µM
  TGI: > 100 µM
UACC-62 melanoma
  GI50: 51.1 µM
  TGI: > 100 µM
RXF 393 renal
  GI50: 30.5 µM
  TGI: > 100 µM
SR leukemia
  GI50: 32.3 µM
  TGI: > 100 µM
IGROV1 ovarian
  GI50: > 100 µM
  TGI: > 100 µM
HOP-62 NSCLC
  GI50: 38 µM
  TGI: > 100 µM
KM12 colon
  GI50: 36.4 µM
  TGI: > 100 µM
K-562 leukemia
  GI50: 35.3 µM
  TGI: > 100 µM

## COc1ccc(Oc2cc(NCCC(F)(F)F)c3ncc(-c4ccc(C(=O)NC5CC5)c(C)c4)n3n2)c(F)c1F
HS 578T breast
  GI50: 1 µM
  TGI: 50.6 µM
SK-MEL-2 melanoma
  GI50: 0.552 µM
  TGI: 26.6 µM
HOP-92 NSCLC
  GI50: 4.54 µM
  TGI: 39.3 µM
UACC-62 melanoma
  GI50: 0.681 µM
  TGI: 85.5 µM
RXF 393 renal
  GI50: 0.425 µM
  TGI: 31.9 µM
SR leukemia
  GI50: 0.224 µM
  TGI: 64.3 µM
IGROV1 ovarian
  GI50: 0.484 µM
  TGI: > 68.3 µM
HOP-62 NSCLC
  GI50: 2.02 µM
  TGI: 37 µM
KM12 colon
  GI50: 1.44 µM
  TGI: > 100 µM
K-562 leukemia
  GI50: 10.2 µM
  TGI: > 100 µM

## Nc1nc(-c2cc(-c3cccc4ccccc34)nc(N)n2)cc(-c2cccc3ccccc23)n1
HS 578T breast
  TGI: > 100 µM
SK-MEL-2 melanoma
  TGI: > 100 µM
HOP-92 NSCLC
  TGI: > 100 µM
UACC-62 melanoma
  TGI: > 100 µM
RXF 393 renal
  TGI: > 100 µM
SR leukemia
  TGI: > 100 µM
IGROV1 ovarian
  TGI: > 100 µM
HOP-62 NSCLC
  TGI: > 100 µM
KM12 colon
  TGI: > 100 µM
K-562 leukemia
  TGI: > 100 µM

## CCCCCSC1C2C(=O)C(Br)=CC13CCNc1c(O)c4c5c(c13)=[N+]2CCC=5C=N4 (configuration not stated)
HS 578T breast
  GI50: 5.47 µM
  TGI: 16.7 µM
SK-MEL-2 melanoma
  GI50: 2.1 µM
  TGI: 5.6 µM
HOP-92 NSCLC
  GI50: 3.02 µM
  TGI: 6.2 µM
UACC-62 melanoma
  GI50: 0.952 µM
  TGI: 3.75 µM
RXF 393 renal
  GI50: 1.87 µM
  TGI: 4.42 µM
SR leukemia
  GI50: 1.35 µM
  TGI: 14.7 µM
IGROV1 ovarian
  GI50: 0.913 µM
  TGI: 3.61 µM
HOP-62 NSCLC
  GI50: 3.03 µM
  TGI: 5.8 µM
KM12 colon
  GI50: 2.53 µM
  TGI: 6.26 µM
K-562 leukemia
  GI50: 2.62 µM
  TGI: 12.2 µM

## COC(=O)/C(=C\c1c(-c2ccccc2)[nH]c2ccccc12)S(C)(=O)=O
HS 578T breast
  GI50: 3.46 µM
  TGI: > 100 µM
SK-MEL-2 melanoma
  GI50: 11.8 µM
  TGI: 28.4 µM
HOP-92 NSCLC
  GI50: 6.56 µM
  TGI: 50.2 µM
UACC-62 melanoma
  GI50: 3.34 µM
  TGI: 17 µM
RXF 393 renal
  GI50: 7.23 µM
  TGI: 68.2 µM
SR leukemia
  GI50: 8.08 µM
  TGI: > 100 µM
IGROV1 ovarian
  GI50: 1.67 µM
  TGI: 9.17 µM
HOP-62 NSCLC
  GI50: 10.7 µM
  TGI: 36.7 µM
KM12 colon
  GI50: 1.48 µM
  TGI: 4.42 µM

## Cc1ccc(C)c2c(N=Nc3ccccc3[N+](=O)[O-])c(O)[nH]c12
HS 578T breast
  TGI: > 100 µM
SK-MEL-2 melanoma
  TGI: > 100 µM
HOP-92 NSCLC
  TGI: > 100 µM
UACC-62 melanoma
  TGI: > 100 µM
RXF 393 renal
  TGI: > 100 µM
SR leukemia
  TGI: > 100 µM
IGROV1 ovarian
  TGI: > 100 µM
HOP-62 NSCLC
  TGI: > 100 µM
KM12 colon
  TGI: > 100 µM
K-562 leukemia
  TGI: > 100 µM
